Source: patent publication US20250230193A1, “CYCLIC COMPOUND HAVING SELECTIVE KRAS INHIBITORY EFFECT ON HRAS AND NRAS” (CHUGAI SEIYAKU KABUSHIKI KAISHA, priority 2022, published 2025)
Where a SMILES comes first, the peptide text is derived from it. Bridges are numbered along the chain shown (N, C = ends). [ ]: non-standard residue; d: D form. hPhe(3-Cl-4-CF3) = N[C@@H](CCc1ccc(C(F)(F)F)c(Cl)c1)C(=O)O; NPrPhe(4-CF3) = CCCN[C@@H](Cc1ccc(C(F)(F)F)cc1)C(=O)O; NMeGly(cPent) = CN[C@H](C(=O)O)C1CCCC1; NMeD = CN[C@@H](CC(=O)O)C(=O)O; NMeL = CN[C@@H](CC(C)C)C(=O)O; Ac5c = NC1(C(=O)O)CCCC1; NEtG = CCNCC(=O)O; Sar = CNCC(=O)O

Columns and labels:
[1] = target: GDP-bound HRAS wild-type protein (Homo sapiens, UniProt P01112); assay: Binding to HRAS by surface plasmon resonance (SPR), Single Cycle Kinetics
Chain of GDP-bound HRAS wild-type protein (P01112 whole entry): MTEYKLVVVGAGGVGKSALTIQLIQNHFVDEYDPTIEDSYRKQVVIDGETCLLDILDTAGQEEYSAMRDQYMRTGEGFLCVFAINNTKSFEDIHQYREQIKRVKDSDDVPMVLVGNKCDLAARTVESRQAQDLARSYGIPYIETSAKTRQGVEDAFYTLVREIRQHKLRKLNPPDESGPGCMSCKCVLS

[2] = target: GDP-bound NRAS wild-type protein (Homo sapiens, UniProt P01111); assay: Binding to NRAS by surface plasmon resonance (SPR), Single Cycle Kinetics
Chain of GDP-bound NRAS wild-type protein (P01111 whole entry): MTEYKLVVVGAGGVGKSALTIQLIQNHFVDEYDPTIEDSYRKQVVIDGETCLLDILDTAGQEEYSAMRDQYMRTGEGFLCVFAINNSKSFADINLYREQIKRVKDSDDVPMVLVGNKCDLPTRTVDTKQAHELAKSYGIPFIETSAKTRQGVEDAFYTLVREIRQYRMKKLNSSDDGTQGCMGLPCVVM

[3] = KD ratio, GDP-bound HRAS wild-type vs GDP-bound KRAS wild-type, SPR
[4] = KD ratio, GDP-bound NRAS wild-type vs GDP-bound KRAS wild-type, SPR
[5] = SPR, GDP-bound HRAS wild-type vs GDP-bound KRAS wild-type
[6] = SPR, GDP-bound NRAS wild-type vs GDP-bound KRAS wild-type

CCO[C@@H]1C[C@H]2C(=O)NC3(CCC3)C(=O)N(C)[C@@H](C3CCCC3)C(=O)N(C)[C@H](C(=O)N(C)C)CC(=O)N(C)[C@@H](CC)C(=O)N[C@@H]([C@@H](C)CC)C(=O)N(C)CC(=O)N(C)[C@H]3CCCCN(C3=O)[C@@H](Cc3ccc(C(F)(F)F)cc3)C(=O)N(C)CC(=O)N[C@@H](CCc3ccc(C(F)(F)F)c(OC)c3)C(=O)N2C1 [PP0884]
HRAS/KRAS (ratio of KD value with respect to HRAS to KD value with respect to KRAS) [1, 3]: C (A compound having a KD ratio of 0.1 or more and less than 3 is denoted as C) | NRAS/KRAS (ratio of KD value with respect to NRAS to KD value with respect to KRAS) [2, 4]: C (A compound having a KD ratio of 0.1 or more and less than 3 is denoted as C)

CCC[C@H]1C(=O)N[C@@H]([C@@H](C)CC)C(=O)N(C)CC(=O)N(C)[C@H]2C/C=C\CCN(C2=O)[C@@H](CC2CCCCC2)C(=O)N(C)CC(=O)N[C@@H](CCc2ccc(C(F)(F)F)c(OC)c2)C(=O)N2C[C@H](OCC)C[C@H]2C(=O)N(C)C2(CCC2)C(=O)N(C)[C@@H](C2CCCC2)C(=O)N(C)[C@H](C(=O)N(C)C)CC(=O)N1C [PP2336]
HRAS/KRAS (ratio of KD value with respect to HRAS to KD value with respect to KRAS) [1, 5]: A (a compound having 10 or more and less than 20 is denoted as A) | NRAS/KRAS (ratio of KD value with respect to NRAS to KD value with respect to KRAS) [2, 6]: A (a compound having 10 or more and less than 20 is denoted as A)

CCC[C@H]1C(=O)N[C@@H]([C@@H](C)CC)C(=O)N(C)CC(=O)N(C)[C@H]2C/C=C\CCN(C2=O)[C@@H](Cc2ccc(C)cc2)C(=O)N(C)CC(=O)N[C@@H](CCc2ccc3sc(F)c(C)c3c2)C(=O)N2C[C@H](OCC)C[C@H]2C(=O)NC2(CC(C)(C)C2)C(=O)N(C)[C@@H](C(CC)CC)C(=O)N(C)[C@H](C(=O)N(C)C)CC(=O)N1C [PP2894]
HRAS/KRAS (ratio of KD value with respect to GDP-bound HRAS wild-type protein to KD value with respect to KRAS) ([1]; class symbols): A (a compound having 10 or more and less than 20 is denoted as A) | NRAS/KRAS (ratio of KD value with respect to GDP-bound NRAS wild-type protein to KD value with respect to KRAS) ([2]; class symbols): AA (a compound having 20 or more is denoted as AA)

CCO[C@@H]1C[C@H]2C(=O)NC3(CCC3)C(=O)N(C)[C@@H](C3CCCC3)C(=O)N(C)[C@H](C(=O)N(C)C)CC(=O)N(C)[C@@H](CC)C(=O)N[C@@H]([C@@H](C)CC)C(=O)N(C)CC(=O)N(C)[C@H]3CCCCCN(C3=O)[C@@H](Cc3ccc(C(F)(F)F)cc3)C(=O)N(C)CC(=O)N[C@@H](CCc3ccc(C(F)(F)F)c(C)c3)C(=O)N2C1 (stereo in doubt) [PP0883]
HRAS/KRAS (ratio of KD value with respect to HRAS to KD value with respect to KRAS) [1, 3]: B (a compound having 3 or more and less than 10 is denoted as B) | NRAS/KRAS (ratio of KD value with respect to NRAS to KD value with respect to KRAS) [2, 4]: B (a compound having 3 or more and less than 10 is denoted as B)

CCC[C@H]1C(=O)N[C@@H]([C@@H](C)CC)C(=O)N(CCC)CC(=O)N(C)[C@H]2C/C=C\CCN(C2=O)[C@@H](Cc2ccc(C)cc2)C(=O)N(C)CC(=O)N[C@@H](CCc2cc(F)c(C(F)(F)F)c(F)c2)C(=O)N2C[C@H](OCC)C[C@H]2C(=O)NC2(CC(C)(C)C2)C(=O)N(C)[C@@H](C2CCCC2)C(=O)N(C)[C@H](C(=O)N(C)C)CC(=O)N1C [PP2108]
HRAS/KRAS (ratio of KD value with respect to HRAS to KD value with respect to KRAS) [1, 5]: A (a compound having 10 or more and less than 20 is denoted as A) | NRAS/KRAS (ratio of KD value with respect to NRAS to KD value with respect to KRAS) [2, 6]: A (a compound having 10 or more and less than 20 is denoted as A)

CCCOC[C@H]1C(=O)N[C@@H]([C@@H](C)CC)C(=O)N(C)CC(=O)N(C)[C@H]2C/C=C\CCN(C2=O)[C@@H](CC2CCCCC2)C(=O)N(C)CC(=O)N[C@@H](CCc2cc(F)c(C(F)(F)F)c(F)c2)C(=O)N2C[C@H](OCC)C[C@H]2C(=O)NC2(CC(C)(C)C2)C(=O)N(C)[C@@H](C(CC)CC)C(=O)N(C)[C@H](C(=O)N(C)C)CC(=O)N1C [PP2501]
HRAS/KRAS (ratio of KD value with respect to HRAS to KD value with respect to KRAS) [1, 5]: A (a compound having 10 or more and less than 20 is denoted as A) | NRAS/KRAS (ratio of KD value with respect to NRAS to KD value with respect to KRAS) [2, 6]: AA (a compound having 20 or more is denoted as AA)

CCCN(C)C(=O)[C@@H]1CC(=O)N(C)[C@@H](COCC)C(=O)N[C@@H]([C@@H](C)CC)C(=O)N(C)CC(=O)N(C)[C@H]2C/C=C\CCN(C2=O)[C@@H](Cc2ccc(C(F)(F)F)cc2)C(=O)N(C)CC(=O)N[C@@H](CCc2ccc(C(F)(F)F)c(OC)c2)C(=O)N2C[C@H](OCC)C[C@H]2C(=O)NC2(CCC2)C(=O)N(C)[C@@H](C2CCCC2)C(=O)N1C [PP2015]
HRAS/KRAS (ratio of KD value for HRAS to KD value for KRAS) [1, 3]: B (a compound having 3 or more and less than 10 is denoted as B) | NRAS/KRAS (ratio of KD value for NRAS to KD value for KRAS) [2, 4]: A (a compound having 10 or more and less than 20 is denoted as A)

CCCN1C(=O)CN(C)C(=O)CN(CC)C(=O)[C@H]([C@@H](C)CC)NC(=O)[C@H](CC(C)C)N(C)C(=O)C[C@@H](C(=O)N(C)C)N(C)C(=O)[C@H](C2CCCC2)N(C)C(=O)C2(CCCC2)NC(=O)[C@@H]2CCCN2C(=O)[C@H](CCc2ccc(C(F)(F)F)c(Cl)c2)NC(=O)CN(C)C(=O)[C@@H]1Cc1ccc(C(F)(F)F)cc1 [PP0423] ([NMeL]I[NEtG][Sar][NPrPhe(4-CF3)][Sar][hPhe(3-Cl-4-CF3)]P[Ac5c][NMeGly(cPent)][NMeD]-NMe2; lactam N-11)
HRAS/KRAS (ratio of KD value with respect to GDP-bound HRAS wild-type protein to KD value with respect to KRAS) ([1]; SPR): C (A compound having a KD ratio of 0.1 or more and less than 3 is denoted as C) | NRAS/KRAS (ratio of KD value with respect to GDP-bound NRAS wild-type protein to KD value with respect to KRAS) ([2]; SPR): B (a compound having 3 or more and less than 10 is denoted as B)
